In US20160115540A1, “PRODRUGS AND DRUGS” (Biogen MA Inc., priority 2013, published 2016):
Counter-ions that a name gives are not always drawn.

Tested on: blood and tissues
Assay: Transcriptional profiling, acute (single) dosing, EAE mice: blood and tissues
Type: in vivo
Conditions: 100MMF-vs-Veh
From the text: EAE induction is generally performed by immunization with brain extracts, CNS proteins (such as myelin basic protein), or peptides from such protein emulsified in an adjuvant such as complete Freund's adjuvant, e.g., as described in Linker et al., Brain. 2011 March 134(Pt3): 678-92. […] FIG. 17 depicts exemplary immunophenotyping panels used to analyze various immune cell populations (e.g., T cells, T regulatory cells, NK cells, B cells, myeloid cells). […] The number of independent mice whose tissues were harvested for transcript profiling studies and whose data passed QC is shown in TABLE 15. Animals were exposed to CO2 and whole blood collected via cardiac puncture. Two 100 μl aliquots of whole blood were collected in 1.5 mL microcentrifuge tubes and snap frozen in liquid nitrogen. Peripheral (liver, spleen, kidney and jejunum) and CNS brain (cerebellum, hippocampus, striatum and cortex) tissues were harvested and snap frozen in liquid nitrogen, with special care taken to collect tissues of similar size and from the same location. All samples were stored at -80° C. until RNA extraction was conducted. For RNA preparation, frozen tissues were placed in 2 mL RNAse-free 96-well blocks with 1.5 mL QIAzol Lysis Reagent (QIAgen) and a 3.2 mm stainless steel bead (BioSpec Products, Bartlesville, Okla.). Tissues were disrupted for four cycles of 45 seconds in a Mini-Beadbeater (Biospec Products). RNA was extracted in chloroform and the aqueous phase was mixed with an equal volume of 70% ethanol. Extracted RNA was applied to RNeasy 96 plates and purified by the spin method according to the manufacturer's protocol (RNeasy 96 Universal Tissue Protocol, QIAgen, Hilden Germany). 50 ul of snap frozen mouse blood was re-suspended in lysis buffer with proteinase K and arrayed into deep-well plates for automated RNA extraction. RNA extractions were completed on […] (Beckman Coulter, Indianapolis, Ind.) using Agencourt RNAdvance Blood kit (Part number A35604) according to the manufacturer's specifications. RNA integrity was assessed using the HT RNA reagent kit (Part number 760410, Caliper Life Sciences, Hopkinton, Mass.) using a LabChip GX (PerkinElmer, Waltham, Mass.). RNA samples with a RQS score of >8.0 were considered high quality for downstream microarray processing. […] Washing and staining of the hybridized arrays were completed as described in the GeneChip Expression analysis technical manual for HT plate arrays using the Genechip® Array Station (Affymetrix, Santa Clara, Calif.) with modifications as described in […] et al. The processed GeneChip® plate arrays were scanned using GeneTitan scanner (Affymetrix, Santa Clara, Calif.). Affymetrix scans were subject to quality control (QC) measures. These tests included a visual inspection of the distribution of raw signal intensities and an assessment of RNA degradation, relative log expression (RLE), and normalized unscaled standard error (NUSE). All sample scans that passed these QC metrics were included in the analysis. […] Nucleic Acids Res 2003; 31:e15; Li C, et al. Genome Biol 2001; 2:[…]0032). […] Stat Appl Genet Mol Biol 2004; 3:Article3). […] Springer Science+Business Media 2005). […] Generally, no distinct sample groupings were apparent from this analysis; however, in the following cohorts, differences in EAE severity across the mice were manifest in global gene expression patterns: An example of this animal grouping is shown in FIG. 33 for the spinal cord from the chronically-dosed 7 h EAE mice. […] Three distinct groups of mice result from unsupervised clustering, and these animal groups correlate with the cumulative EAE score. […] Subsequent analyses for the cohorts listed above only included those animals with the most severe EAE scores; however, for the cohorts 'Spinal Cord, Acute Dosing, 7 h' and 'Spleen, Acute Dosing, 12 h,' there were an insufficient number of mice in the different treatment groups to perform such a sub-analysis. […]

SMILES: COC(=O)/C=C/C(=O)O [MMF, monomethyl fumarate]
- FC Gm6159 /// Hnrnpr 1437526_PM_x_at (spleen, 7 h): 1.50
- FC Gsto1 1456036_PM_x_at (spleen, 7 h): 1.51
- FC Hadhb 1437172_PM_x_at (spleen, 7 h): 1.51
- FC Herpud2 1439424_PM_x_at (spleen, 7 h): 1.62
- FC Higd1c /// Mettl7a1 /// Mettl7a2 1434150_PM_a_at (spleen, 7 h): 2.40
- FC Higd1c /// Mettl7a2 1456510_PM_x_at (spleen, 7 h): 1.61
- FC Homer1 1437363_PM_at (spleen, 7 h): 1.60
- FC Itsn1 1435884_PM_at (spleen, 7 h): 1.69
- FC Kctd3 1455816_PM_a_at (spleen, 7 h): 1.51
- FC Kif22 1437716_PM_x_at (spleen, 7 h): 1.68
- FC Klhl7 1428091_PM_at (spleen, 7 h): 1.77
- FC LOC100047324 /// Sesn1 1438931_PM_s_at (spleen, 7 h): 1.52
- FC Lmcd1 1424596_PM_s_at (spleen, 7 h): 1.64
- FC Lnp 1453035_PM_at (spleen, 7 h): 1.69
- FC Lrrtm2 1455489_PM_at (spleen, 7 h): 1.50
- FC Mcm4 1436708_PM_x_at (spleen, 7 h): 1.72
- FC Metap2 1434120_PM_a_at (spleen, 7 h): 1.52
- FC Mettl7a1 1454858_PM_x_at (spleen, 7 h): 1.63
- FC Mkrn1 1434853_PM_x_at (spleen, 7 h): 1.62
- FC Myef2 1425350_PM_a_at (spleen, 7 h): 1.59
- FC Myof 1427318_PM_s_at (spleen, 7 h): 1.52
- FC Ncapd3 1454952_PM_s_at (spleen, 7 h): 1.66
- FC Nfkb1 1427705_PM_a_at (spleen, 7 h): 1.52
- FC Nqo1 (1423627_PM_at) (spleen, 7 h): 3.23
- FC Nudt12 1453139_PM_at (spleen, 7 h): 2.17
- FC Otud5 1438985_PM_x_at (spleen, 7 h): 1.51
- FC Pik3r1 1425514_PM_at (spleen, 7 h): 1.62
- FC Pir (1429001_PM_at) (spleen, 7 h): 2.78
- FC Polh 1447837_PM_x_at (spleen, 7 h): 1.64
- FC Prkaca 1447720_PM_x_at (spleen, 7 h): 1.53
- FC Prkar1b 1440132_PM_s_at (spleen, 7 h): 1.50
- FC Prpf40a 1429436_PM_at (spleen, 7 h): 1.65
- FC Psmc6 1417770_PM_s_at (spleen, 7 h): 1.77
- FC Psmd9 1447670_PM_at (spleen, 7 h): 1.73
- FC Rab6 1447776_PM_x_at (spleen, 7 h): 1.51
- FC Rad21 1455938_PM_x_at (spleen, 7 h): 1.58
- FC Ranbp2 1422621_PM_at (spleen, 7 h): 1.50
- FC Ranbp2 1445883_PM_at (spleen, 7 h): 1.61
- FC Rbm39 1442745_PM_x_at (spleen, 7 h): 1.54
- FC Rdx 1416179_PM_a_at (spleen, 7 h): 1.53
- FC Rif1 1429490_PM_at (spleen, 7 h): 1.66
- FC Rlim 1439403_PM_x_at (spleen, 7 h): 1.51
- FC Sec24a 1433934_PM_at (spleen, 7 h): 1.50
- FC Smc4 1427275_PM_at (spleen, 7 h): 1.56
- FC Smc6 1460069_PM_at (spleen, 7 h): 1.52
- FC Smpd4 1429530_PM_a_at (spleen, 7 h): 2.04
- FC Sorbs1 1436737_PM_a_at (spleen, 7 h): 1.71
- FC Sp4 1437508_PM_at (spleen, 7 h): 1.67
- FC Srxn1 (1419942_PM_at) (spleen, 7 h): 1.82
- FC Srxn1 (1426875_PM_s_at) (spleen, 7 h): 1.94
- FC Srxn1 (1451680_PM_at) (spleen, 7 h): 1.68
- FC Suz12 1449661_PM_at (spleen, 7 h): 1.56
- FC Svip 1429146_PM_at (spleen, 7 h): 1.59
- FC Tceb1 1452593_PM_a_at (spleen, 7 h): 1.50
- FC Terf1 1443527_PM_at (spleen, 7 h): 1.71
- FC Thoc1 1420042_PM_at (spleen, 7 h): 1.89
- FC Tmem41b 1428586_PM_at (spleen, 7 h): 1.88
- FC Tmem64 1433735_PM_a_at (spleen, 7 h): 1.70
- FC Tnks2 1447522_PM_s_at (spleen, 7 h): 1.63
- FC Tspyl1 1415908_PM_at (spleen, 7 h): 1.66
- FC Ttc14 1437878_PM_s_at (spleen, 7 h): 1.53
- FC Txnl1 1435235_PM_at (spleen, 7 h): 1.59
- FC Usp14 1437714_PM_x_at (spleen, 7 h): 1.57
- FC Zfp800 1456790_PM_at (spleen, 7 h): 1.83
- FC Zfx 1419565_PM_a_at (spleen, 7 h): 1.50
- FC 4930427A07Rik 1455818_PM_at (whole blood, 7 h): −1.59
- FC Klra3 /// Klra9 1425436_PM_x_at (whole blood, 7 h): −2.05
- FC Klra8 1425417_PM_x_at (whole blood, 7 h): −2.10
- FC Rnf128 (1449036_PM_at) (whole blood, 7 h): 1.54
- FC Serpinb6b 1422804_PM_at (whole blood, 7 h): −1.64
- FC Xpc 1422532_PM_at (whole blood, 7 h): 1.59
- FC 1445666_PM_at (whole blood, 12 h): 2.14
- FC Prdm2 1453068_PM_at (whole blood, 12 h): 1.70
